As usually defined, the IC50 is the concentration that inhibits the measured activity by half.

Where two headings read alike, the source gives them in different places.

Consider 22 compounds from patent US11370763B2, “Compounds and compositions for treating conditions associated with NLRP activity” (Novartis AG, priority 2017, dated 2022).

In this assay the test system is IL-1β production in PMA-differentiated THP-1 cells. Kind of assay: IL-1β production in PMA-differentiated THP-1 cells stimulated with gramicidin (hTHP-1 assay containing 2% fetal bovine serum; Procedures 1-3). In kind it is cell-based, human. To be noted: read-out: hTHP-1 IC50 (Average IC50 of compounds in hTHP-1 assay). The procedure: The following protocol is suitable for testing the activity of the compounds disclosed herein.
Procedure 1: IL-1β Production in PMA-Differentiated THP-1 Cells Stimulated with Gramicidin
THP-1 cells were purchased from the American Type Culture Collection and sub-cultured according to instructions from the supplier. Cells were cultured in complete RPMI 1640 (containing 10% heat inactivated FBS, penicillin (100 units/ml) and streptomycin (100 μg/ml)), and maintained in log phase prior to experimental setup. Prior to the experiment, compounds were dissolved in dimethyl sulfoxide (DMSO) to generate a 30 mM stock. The compound stock was first pre-diluted in DMSO to 3, 0.34, 0.042 and 0.0083 mM intermediate concentrations and subsequently spotted using Echo550 liquid handler into an empty 384-well assay plate to achieve desired final concentration (e.g. 100, 33, 11, 3.7, 1.2, 0.41, 0.14, 0.046, 0.015, 0.0051, 0.0017 μM). DMSO was backfilled in the plate to achieve a final DMSO assay concentration of 0.37%. The plate was then sealed and stored at room temperature until required.
THP-1 cells were treated with PMA (Phorbol 12-myristate 13-acetate) (20 ng/ml) for 16-18 hours. On the day of the experiment the media was removed and adherent cells were detached with trypsin for 5 minutes. Cells were then harvested, washed with complete RPMI 1640, spun down, and resuspended in RPMI 1640 (containing 2% heat inactivated FBS, penicillin (100 units/ml) and streptomycin (100 μg/ml). The cells were plated in the 384-well assay plate containing the spotted compounds at a density of 50,000 cells/well (final assay volume 50 μl). Cells were incubated with compounds for 1 hour and then stimulated with gramicidin (5 μM) (Enzo) for 2 hours. Plates were then centrifuged at 340 g for 5 min. Cell free supernatant (40 μL) was collected using a 96-channel PlateMaster (Gilson) and the production of IL-1β was evaluated by HTRF (cisbio). The plates were incubated for 18 h at 4° C. and read using the preset HTRF program (donor emission at 620 nm, acceptor emission at 668 nm) of the SpectraMax i3x spectrophotometer (Molecular Devices, software SoftMax 6). A vehicle only control and a dose titration of CRID3 (100-0.0017 μM) were run concurrently with each experiment.
Procedure 2: IL-1β Production in PMA-Differentiated THP-1 Cells Stimulated with Gramicidin
THP-1 cells were purchased from the American Type Culture Collection and sub-cultured according to instructions from the supplier. Prior to experiments, cells were cultured in complete RPMI 1640 (containing 10% heat inactivated FBS, penicillin (100 units/ml) and streptomycin (100 μg/ml)), and maintained in log phase prior to experimental setup. Prior to the experiment THP-1 were treated with PMA (Phorbol 12-myristate 13-acetate) (20 ng/ml) for 16-18 hours. Compounds were dissolved in dimethyl sulfoxide (DMSO) to generate a 30 mM stock. On the day of the experiment the media was removed and adherent cells were detached with trypsin for 5 minutes. Cells were then harvested, washed with complete RPMI 1640, spun down, resuspended in RPMI 1640 (containing 2% heat inactivated FBS, penicillin (100 units/ml) and streptomycin (100 μg/ml). The cells were plated in a 384-well plate at a density of 50,000 cells/well (final assay volume 50 μl). Compounds were first dissolved in assay medium to obtain a 5× top concentration of 500 μM. 10 step dilutions (1:3) were then undertaken in assay medium containing 1.67% DMSO. 5× compound solutions were added to the culture medium to achieve desired final concentration (e.g. 100, 33, 11, 3.7, 1.2, 0.41, 0.14, 0.046, 0.015, 0.0051, 0.0017 μM). Final DMSO concentration was at 0.37%. Cells were incubated with compounds for 1 hour and then stimulated with gramicidin (5 μM) (Enzo) for 2 hours. Plates were then centrifuged at 340 g for 5 min. Cell free supernatant (40 μL) was collected using a 96-channel PlateMaster (Gilson) and the production of IL-1β was evaluated by HTRF (cisbio). […]

Setting [1] is: Homo sapiens, THP-1, hTHP-1 assay containing 2% fetal bovine serum, given as numeric bound.
Where [2] appears, read: Homo sapiens, THP-1, hTHP-1 assay containing 2% fetal bovine serum, class symbols.
The mark [3] stands for this setting: hTHP-1 assay containing 2% fetal bovine serum, class symbols.

Regarding `CC(C)(O)c1ncc(S(N)(=O)=NC(=O)Cc2c(C3CC3)cc(F)cc2C(F)(F)F)s1` (single isomer, unassigned) [Example 197, (S) or (R)-N-(amino(2-(2-hydroxypropan-2-yl)thiazol-5-yl)(oxo)-λ^6-sulfaneylidene)-2-(2-cyclopropyl-4-fluoro-6-(trifluoromethyl)phenyl) acetamide], under setting [1], the IC50 was more than 30 µM.

In the case of `CC(C)c1ccc(F)c(C(C)C)c1CC(=O)N=S(N)(=O)c1ccc2c(cnn2C)c1` (single isomer, unassigned) [Example 198, (R) or (S)-N-(amino(1-methyl-1H-indazol-5-yl)(oxo)-λ^6-sulfaneylidene)-2-(3-fluoro-2,6-diisopropylphenyl)acetamide], the IC50 under setting [2] lay in the range of 5 to 30 µM.

Turning to `CC(C)c1ccc(F)c(C(C)C)c1CC(=O)N=S(N)(=O)c1ccc2c(cnn2C)c1` (single isomer, unassigned) [Example 199, (S) or (R)-N-(amino(1-methyl-1H-indazol-5-yl)(oxo)-λ^6-sulfaneylidene)-2-(3-fluoro-2,6-diisopropylphenyl)acetamide], the concentration for half-maximal inhibition (IC50) under setting [1] is more than 30 µM.

As to `CC(C)c1ccc(F)c(C(C)C)c1CC(=O)N=S(N)(=O)c1ccc(CN(C)C)cn1` (single isomer, unassigned) [Example 200, (R) or (S)-N-(amino(5-((dimethylamino)methyl)pyridin-2-yl)(oxo)-λ^6-sulfaneylidene)-2-(3-fluoro-2,6-diisopropylphenyl)acetamide], the IC50 under setting [2] lay in the range of 1 to 5 µM.

For the compound `CC(C)c1ccc(F)c(C(C)C)c1CC(=O)N=S(N)(=O)c1ccc(CN(C)C)cn1` (single isomer, unassigned) [Example 201, (S) or (R)-N-(amino(5-((dimethylamino)methyl)pyridin-2-yl)(oxo)-λ^6-sulfaneylidene)-2-(3-fluoro-2,6-diisopropylphenyl)acetamide], the 50% inhibitory concentration (IC50) under setting [1] is more than 30 µM.

In the case of `CC(C)c1nc(-c2cccc(C(F)(F)F)c2)c(F)c(C(C)C)c1CC(=O)N=S(N)(=O)c1cnc(C(C)(C)O)s1` (single isomer, unassigned) [Example 202, N-(amino(2-(2-hydroxypropan-2-yl)thiazol-5-yl)(oxo)-λ^6-sulfaneylidene)-2-(5-fluoro-2,4-diisopropyl-6-(3-(trifluoromethyl)phenyl)pyridin-3-yl)acetamide], the IC50 under setting [3] lay in the range of 0.2 to 1 µM.

As for `CC(C)c1ncc(F)c(C(C)C)c1CC(=O)N=S(N)(=O)c1ncc(C(C)(C)O)s1` (single isomer, unassigned) [Example 204, N-(amino(5-(2-hydroxypropan-2-yl)thiazol-2-yl)(oxo)-λ^6-sulfaneylidene)-2-(5-fluoro-2,4-diisopropylpyridin-3-yl)acetamide], the IC50 under setting [2] is 1 to 5 µM.

For the compound `CC(C)c1ncc(F)c(C(C)C)c1CC(=O)N=S(N)(=O)c1ncc(C(C)(C)O)s1` (single isomer, unassigned) [Example 205, (S) or (R)-N-(amino(5-(2-hydroxypropan-2-yl)thiazol-2-yl)(oxo)-λ^6-sulfaneylidene)-2-(5-fluoro-2,4-diisopropylpyridin-3-yl)acetamide], the 50% inhibitory concentration (IC50) under setting [1] is more than 30 µM.

Turning to `CC(C)c1ncc(F)c(C(C)C)c1CC(=O)N=S(N)(=O)c1nc(C(C)(C)O)cs1` (single isomer, unassigned) [Example 206, N-(amino(4-(2-hydroxypropan-2-yl)thiazol-2-yl)(oxo)-λ^6-sulfaneylidene)-2-(5-fluoro-2,4-diisopropylpyridin-3-yl)acetamide], under setting [2], the IC50 was in the range of 0.2 to 1 µM.

For the compound `CC(C)c1ncc(F)c(C(C)C)c1CC(=O)N=S(N)(=O)c1nc(C(C)(C)O)cs1` (single isomer, unassigned) [Example 207, (S) or (R)-N-(amino(4-(2-hydroxypropan-2-yl)thiazol-2-yl)(oxo)-λ^6-sulfaneylidene)-2-(5-fluoro-2,4-diisopropylpyridin-3-yl)acetamide], under setting [1], the half-maximal inhibitory concentration (IC50) is more than 30 µM.

Turning to `CC(C)c1ncc(F)c(C(C)C)c1CC(=O)N=S(N)(=O)c1sc(C(C)(C)O)cc1F` (single isomer, unassigned) [Example 211, N-(amino(3-fluoro-5-(2-hydroxypropan-2-yl)thiophen-2-yl)(oxo)-λ^6-sulfaneylidene)-2-(5-fluoro-2,4-diisopropylpyridin-3-yl)acetamide], the IC50 under setting [3] was in the range of 0.2 to 1 µM.

In the case of `CC(C)c1cc2c(c(C(C)C)c1CC(=O)N=S(N)(=O)c1cnc(C(C)(C)O)s1)CCC2` (single isomer, unassigned) [Example 212, (R) or (S)-N-(amino(2-(2-hydroxypropan-2-yl)thiazol-5-yl)(oxo)-λ^6-sulfaneylidene)-2-(4,6-diisopropyl-2,3-dihydro-1H-inden-5-yl)acetamide], under setting [1], the half-inhibitory concentration (IC50) is more than 30 µM.

Regarding `CC(C)c1cc2c(c(C(C)C)c1CC(=O)N=S(N)(=O)c1cnc(C(C)(C)O)s1)CCC2` (single isomer, unassigned) [Example 213, (S) or (R)-N-(amino(2-(2-hydroxypropan-2-yl)thiazol-5-yl)(oxo)-λ^6-sulfaneylidene)-2-(4,6-diisopropyl-2,3-dihydro-1H-inden-5-yl)acetamide], under setting [2], the concentration for half-maximal inhibition (IC50) was 1 to 5 µM.

Consider `CC(C)c1cc2c(c(C(C)C)c1CC(=O)N=S(N)(=O)c1ccn(C(C)C)n1)COC2` (single isomer, unassigned) [Example 218, (R) or (S)-N-(amino(1-isopropyl-1H-pyrazol-3-yl)(oxo)-λ^6-sulfaneylidene)-2-(4,6-diisopropyl-1,3-dihydroisobenzofuran-5-yl)acetamide], for which the concentration for half-maximal inhibition (IC50) under setting [2] was 5 to 30 µM.

`CC(C)c1cc2c(c(C(C)C)c1CC(=O)N=S(N)(=O)c1ccn(C(C)C)n1)COC2` (single isomer, unassigned) [Example 219, (S) or (R)-N-(amino(1-isopropyl-1H-pyrazol-3-yl)(oxo)-λ^6-sulfaneylidene)-2-(4,6-diisopropyl-1,3-dihydroisobenzofuran-5-yl)acetamide]: the IC50 under setting [1] was more than 30 µM.

With `CC(C)c1cc(F)cc(C(C)C)c1CC(=O)N=S(N)(=O)c1ccc(C(C)(C)O)cc1` (stereo not shown) [Compound 131], the IC50 under setting [3] is 5 to 30 µM.

As for `CC(C)(O)c1ncc(S(N)(=O)=NC(=O)Cc2cc3c(c4c2CCC4)CCC3)s1` (stereo not shown) [Compound 259], the IC50 under setting [1] is more than 17 µM.

Take `CC(C)(O)c1ncc([S@@](N)(=O)=NC(=O)Cc2cc3c(c4c2CCC4)CCC3)s1` [Compound 259a]: the IC50 under setting [2] was in the range of 5 to 30 µM.

`CC(C)(O)c1ncc([S@](N)(=O)=NC(=O)Cc2cc3c(c4c2CCC4)CCC3)s1` [Compound 259b]: the IC50 under setting [1] was more than 30 µM.

For `CC(C)(O)c1ncc([S@@](N)(=O)=NC(=O)Cn2c3ccccc3c3ccccc32)s1` [Compound 262a], under setting [1], the IC50 was more than 30 µM.

Take `CC(C)(O)c1ncc([S@](N)(=O)=NC(=O)Cn2c3ccccc3c3ccccc32)s1` [Compound 262b]: the half-inhibitory concentration (IC50) under setting [2] lay within 5 to 30 µM.

Take `CC(C)(O)c1cnc(S(N)(=O)=NC(=O)Cc2c3c(cc4c2CCC4)CCC3)s1` (stereo not shown) [Example 4, 2-(1,2,3,5,6,7-Hexahydro-s-indacen-4-yl)-N-(5-(2-hydroxypropan-2-yl)thiazol-2-ylsulfonimidoyl)acetamide]: the half-maximal inhibitory concentration (IC50) under setting [2] was in the range of 5 to 30 µM.
